Source: ChEMBL document CHEMBL1140125, “Purity-activity relationships of natural products: the case of anti-TB active ursolic acid” (2008)
Values after ≈ are worked out from the molar mass of the structure shown.

How the values were obtained:
[1] = system: Mycobacterium tuberculosis; assay: Antimycobacterial activity against Mycobacterium tuberculosis H37Rv ATCC 27294 after 7 days by microplate Alamar blue assay; type: functional; settings: 168 h
[2] = system: Mycobacterium tuberculosis; assay: Antimycobacterial activity against Mycobacterium tuberculosis H37Rv GFP after 7 days by green fluorescent microplate assay; type: functional; settings: 168 h

SMILES	MIC [1] [mg/L]	MIC [2] [mg/L]
C=C(C)[C@@H]1CC[C@]2(C(=O)O)CC[C@]3(C)[C@H](CC[C@@H]4[C@@]5(C)CC[C@H](O)C(C)(C)[C@@H]5CC[C@]43C)[C@@H]12 [BETULINIC ACID]	> 128	–
CC1(C)CC[C@]2(C(=O)O)CC[C@]3(C)C(=CC[C@@H]4[C@@]5(C)CC[C@H](O)C(C)(C)[C@@H]5CC[C@]43C)[C@@H]2C1 [OLEANOLIC_ACID]	100 (≈ 219 µM)	–
C[C@H]1[C@H](C)CC[C@]2(C(=O)O)CC[C@]3(C)C(=CC[C@@H]4[C@@]5(C)CC[C@H](O)C(C)(C)[C@@H]5CC[C@]43C)[C@H]12 [URSOLIC ACID]	> 256	> 100
